Assay results published in patent publication US20220202882A1, “EFFECT OF COMBINATION OF BIFIDOBACTERIUM AND BERBERINE ON PRE-DIABETES AND TYPE 2 DIABETES” (The Fourth Military Medical University, priority 2018, published 2022).
Counter-ions that a name gives are not always drawn.

Tested on: pre-diabetic and type 2 diabetes mellitus patients
Assay: Clinical trial: glycosylated hemoglobin (HbA1c)
Format: in vivo, human
Details: for Effect on glycosylated hemoglobin level (in words) / Post-treatment HbA1c - pre-treatment HbA1c, mean value / Post-treatment HbA1c <7.0% with no hypoglycemia, Yes-N (%) / Post-treatment HbA1c <7.0%, Yes-N (%): 16 weeks of treatment; for Effect on glycosylated hemoglobin level (in words): Kruskal-Wilcox test; for Post-treatment HbA1c, mean value: after 16 weeks of treatment; for Pre-treatment HbA1c, mean value: baseline before treatment
Procedure: From June 2015 to October 2018, a double-blind, randomized, and parallel-controlled trial, studying the effects of the combined use of Bifidobacterium and berberine on pre-diabetic and type 2 diabetes mellitus patients, was conducted in 10 research centers in Xi'an, Yan'an and Shangluo of Shaanxi province, etc., including the First Affiliated Hospital of the Fourth Military Medical University. The trial included an enrollment stage of 2 weeks and a treatment stage of 16 weeks. After passing the first visit 1 (see V1 in Table 1), the subjects entered the enrollment stage, i.e., 2 weeks of lifestyle intervention, followed by a re-screening (see V2 in Table 1). The subjects were subjected to a 16-week course of treatment after passing the screening. See Table 1 for the detailed screening parameters. After the enrollment stage, the baseline data of the 300 successfully enrolled subjects were collected. Meanwhile, the subjects started to receive lifestyle guidance, and were randomly divided into four groups for 16 weeks of treatments. 1) Bifidobacterium group: the subjects were administered with Bifidobacterium capsules (Livzon Pharmaceutical Group Inc., batch no.: 20141013), 0.35 g/capsule, each capsule containing 50,000,000 viable bacteria (Bifidobacterium adolescentis DM8504), 2 capsules/time, 2 times/day, plus berberine placebo tablets (Northeast Pharma Group Shenyang First Pharma Co., Ltd., Lot no.: 20150101, containing 80.2% microcrystalline cellulose, 9.4% pregelatinized starch, 6.4% sodium carboxymethyl starch, 1% magnesium stearate, and 3% copovidone), 0.1 g/tablet, 5 tablets/time, 2 times/day. 2) Berberine group: the subjects were administered with berberine tablets (Northeast Pharma Group Shenyang First Pharma Co., Ltd., Lot no.: 130917, each tablet weighted 0.165 g and contained 0.1 g active berberine ingredient (berberine hydrochloride), with the same excipients as the placebo tablets), 5 tablets/time, 2 times/day, plus Bifidobacterium placebo capsules (Livzon Pharmaceutical Group Inc., Lot no.: 141001, specifically containing 0.348 g spray-dried lactose, and 0.002 g magnesium stearate), 0.35 g/capsule, 2 capsules/time, 2 times/day. 3) Combination Group: the subjects were administered with Bifidobacterium capsules, 0.35 g/capsule, each capsule containing 50,000,000 viable bacteria (B. adolescentis DM8504), 2 capsules/time, 2 times/day, plus berberine tablets, 0.1 g/tablet, each tablet containing 0.1 g active berberine ingredient (berberine hydrochloride), 5 tablets/time, 2 times/day. 4) Control group: the subjects were administered with Bifidobacteria placebo capsules, 0.35 g/capsule, 2 capsules/time, 2 times/day, plus berberine placebo tablets, 0.1 g/tablet, 5 tablets/time, 2 times/day. Bifidobacterium capsules were taken after meals and berberine tablets were taken before meals. Before blood collection, the subjects were kept still for 5 min. For serum insulin assays, 5 ml of whole blood was collected at fasting, and 30 min and 2 h post glucose intake, and then subjected to centrifugation […]. The obtained serum was collected in the cryogenic vials. For the glycosylated hemoglobin (HbA1c) test, 2 ml of whole blood was collected and placed in EDTA-containing tubes. For the GLP-1 and glucagon measurements, 5 ml of whole blood was collected in vacutainers containing EDTA and aprotinin at fasting, and 30 min and 2 h post meals, subjected to centrifugation, and the obtained serum was collected in cryogenic vials and stored at −20° C. Soybean-sized stool sample was placed in a dry and sterile collection tube, and sent to the detection center within 24 h for cryopreservation. […]

Compound	Effect on glycosylated hemoglobin level (in words)	Post-treatment HbA1c - pre-treatment HbA1c, mean value (FAS) [%]	Post-treatment HbA1c <7.0% with no hypoglycemia, Yes-N (%) (FAS)	Post-treatment HbA1c <7.0%, Yes-N (%) (FAS)	Post-treatment HbA1c, mean value (FAS) [%]	Pre-treatment HbA1c, mean value (FAS) [%]	Post-treatment HbA1c <7.0% with no hypoglycemia, Yes-N (%) (PPS)	Post-treatment HbA1c <7.0%, Yes-N (%) (PPS)
Bifidobacterium	no glycosylated hemoglobin lowing effect	−0.0545	76(76.00) N (%)	88(88.00) N (%)	6.1500	6.1900	61(73.49) N (%)	71(85.54) N (%)
COc1ccc2cc3[n+](cc2c1OC)CCc1cc2c(cc1-3)OCO2 [Berberine, berberine hydrochloride]	not significantly different from that of the combined use of berberine and Bifidobacterium	−0.1170	40(81.63) N (%)	48(97.96) N (%)	6.0800	6.1900	28(75.68) N (%)	36(97.30) N (%)
